{
  "source": "patent US6103723A",
  "about": "“Inhibitors of farnesyl-protein transferase” (Merck & Co., Inc., priority 1998, dated 2000)",
  "origin": "cited, not measured here",
  "test_system": "farnesyl-protein transferase",
  "conditions": "via HMG-CoA reductase inhibition",
  "data": [
    {"smiles": "CC[C@H](C)C(=O)O[C@H]1C[C@@H](C)C=C2C=C[C@H](C)[C@H](CC[C@@H]3C[C@@H](O)CC(=O)O3)[C@H]21", "note": "[lovastatin]", "values": [
      {"measurement": "Indirect inhibition of farnesyl-protein transferase in vivo", "value": "Indirect inhibition of farnesyl-protein transferase in vivo has been demonstrated"}
    ]},
    {"smiles": "CC[C@H](C)C(=O)O[C@H]1CCC=C2C=C[C@H](C)[C@H](CC[C@@H]3C[C@@H](O)CC(=O)O3)[C@H]21", "note": "[compactin]", "values": [
      {"measurement": "Indirect inhibition of farnesyl-protein transferase in vivo", "value": "Indirect inhibition of farnesyl-protein transferase in vivo has been demonstrated"}
    ]}
  ]
}
